This passage reports inhibition results from publication PMC2864305 (Biochemistry, 2010).

This assay addresses T1, RePC (Rhizobium etli pyruvate carboxylase) (Rhizobium etli, UniProt Q2K340).
T1 sequence (Q2K340 1-1154): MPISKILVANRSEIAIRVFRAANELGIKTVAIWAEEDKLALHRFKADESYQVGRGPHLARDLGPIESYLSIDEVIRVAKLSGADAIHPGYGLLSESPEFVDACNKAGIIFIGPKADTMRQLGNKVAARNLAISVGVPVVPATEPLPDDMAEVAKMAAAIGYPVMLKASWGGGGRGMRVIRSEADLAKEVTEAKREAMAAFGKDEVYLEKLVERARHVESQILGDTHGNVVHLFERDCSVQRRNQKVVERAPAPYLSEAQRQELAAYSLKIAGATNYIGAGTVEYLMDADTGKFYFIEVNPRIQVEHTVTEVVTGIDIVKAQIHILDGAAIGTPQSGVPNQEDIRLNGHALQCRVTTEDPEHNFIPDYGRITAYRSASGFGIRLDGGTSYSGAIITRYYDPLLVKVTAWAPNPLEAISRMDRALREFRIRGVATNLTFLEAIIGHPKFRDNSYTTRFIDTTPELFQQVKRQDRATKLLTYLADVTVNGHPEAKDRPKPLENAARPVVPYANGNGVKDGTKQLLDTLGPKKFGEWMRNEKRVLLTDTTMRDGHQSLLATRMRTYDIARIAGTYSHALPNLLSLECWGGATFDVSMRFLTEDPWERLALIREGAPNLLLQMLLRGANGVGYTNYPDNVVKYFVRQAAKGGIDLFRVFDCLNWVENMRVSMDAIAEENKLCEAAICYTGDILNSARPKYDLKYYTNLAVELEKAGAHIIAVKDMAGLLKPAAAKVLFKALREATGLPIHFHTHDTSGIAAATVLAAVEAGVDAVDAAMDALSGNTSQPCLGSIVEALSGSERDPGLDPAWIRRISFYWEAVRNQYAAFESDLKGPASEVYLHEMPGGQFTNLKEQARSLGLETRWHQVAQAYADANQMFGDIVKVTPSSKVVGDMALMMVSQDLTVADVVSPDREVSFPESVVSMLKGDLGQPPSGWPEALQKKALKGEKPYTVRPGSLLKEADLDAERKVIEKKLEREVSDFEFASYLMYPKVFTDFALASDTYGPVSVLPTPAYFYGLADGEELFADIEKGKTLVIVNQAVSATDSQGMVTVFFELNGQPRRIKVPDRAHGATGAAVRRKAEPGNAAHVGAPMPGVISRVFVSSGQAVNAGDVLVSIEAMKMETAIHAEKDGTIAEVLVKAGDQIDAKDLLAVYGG
The assay is classed as biochemical. The note with it: read-out: % inhibition at 20 mM.

For the molecule `NC(=O)C(=O)O` [oxamate], the inhibition at 20000 µM amounted to 68%.
